The text below walks through data of PubChem BioAssay (NCI).

Test systems include OVCAR-8 ovarian; HS 578T breast; SN12C renal; MOLT-4 leukemia; HCT-116 colon; SW-620 colon; OVCAR-4 ovarian; MCF7 breast; COLO 205 colon; MALME-3M melanoma; TK-10 renal; SR leukemia; NCI-H460 lung; UO-31 renal; RXF 393 renal; SK-OV-3 ovarian; CCRF-CEM leukemia.
Test in all cases: NCI-60 cell line screen, 48 h

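Interpolation was linear, between the two tested concentrations surrounding the appropriate level; five concentrations were tested over 48 hours in 96-well plates. TGI marks complete inhibition of growth.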

Regarding `O=C(OCc1ccccc1)N1CCCc2c(n(S(=O)(=O)c3ccccc3)c3ccccc23)C1`, the TGI in the experiment with OVCAR-8 ovarian, in the experiment with HS 578T breast, in the experiment on SN12C renal, in the experiment on MOLT-4 leukemia, in the experiment on HCT-116 colon and in the experiment with SW-620 colon was over 100 µM each time. For the same molecule, the TGI with OVCAR-4 ovarian, in the experiment with MCF7 breast, with COLO 205 colon, in the experiment with MALME-3M melanoma, in the experiment on TK-10 renal and in the experiment with SR leukemia was over 100 µM each time. In addition, the TGI in the experiment with NCI-H460 lung, in the experiment on UO-31 renal, in the experiment with RXF 393 renal and in the experiment on SK-OV-3 ovarian was over 100 µM throughout.
Take `C=CCC1C(=O)Nc2cccc3ncn(c23)C1=O` (stereo not given): the TGI in the experiment on OVCAR-8 ovarian, with HS 578T breast, in the experiment with SN12C renal, in the experiment with MOLT-4 leukemia, with HCT-116 colon and in the experiment on SW-620 colon was over 100 µM in each case. Moreover, the TGI in the experiment on OVCAR-4 ovarian, with MCF7 breast, in the experiment on COLO 205 colon, in the experiment with MALME-3M melanoma, with CCRF-CEM leukemia and in the experiment on SR leukemia was over 100 µM throughout. In addition, the TGI in the experiment with NCI-H460 lung, in the experiment on UO-31 renal, in the experiment on RXF 393 renal and with SK-OV-3 ovarian was over 100 µM throughout.
As to `CC[C@H]1C=CCC[C@@]2(C[C@@H]3CC[C@H]4[C@H](C(=O)OCCCCCCCCCCCCCCCC(=O)N(CCCN)C[C@@H](O)CCN)[C@]5(CCC[C@@H](C)O5)NC(=[N+]34)N2)O1`, the TGI came to 2.92 µM in the experiment with OVCAR-8 ovarian; 4.26 µM with HS 578T breast; 2.19 µM in the experiment on SN12C renal; 1.29 µM in the experiment on MOLT-4 leukemia; 1.31 µM in the experiment with HCT-116 colon; 3.51 µM in the experiment on SW-620 colon. The TGI with OVCAR-4 ovarian amounted to 2.44 µM; with MCF7 breast, 1.51 µM; with COLO 205 colon, 1.3 µM; with MALME-3M melanoma, 0.806 µM; in the experiment on TK-10 renal, 2.98 µM; in the experiment on SR leukemia, 1.23 µM. Also, the TGI in the experiment with NCI-H460 lung was 1.87 µM; in the experiment with UO-31 renal, 1.69 µM; in the experiment with RXF 393 renal it was 3.42 µM; with SK-OV-3 ovarian, 3.28 µM.
Consider `COC(=O)[C@@H]1OC(C)(c2ccccc2)O[C@H]1C(=O)OC`, for which the TGI in the experiment on OVCAR-8 ovarian, in the experiment on HS 578T breast, in the experiment with MOLT-4 leukemia, with SW-620 colon, with OVCAR-4 ovarian and in the experiment on MCF7 breast was over 100 µM in each case. Besides, the TGI in the experiment with COLO 205 colon, in the experiment with MALME-3M melanoma, with CCRF-CEM leukemia, in the experiment on TK-10 renal, in the experiment with SR leukemia and in the experiment with NCI-H460 lung was over 100 µM each time. Besides, the TGI with UO-31 renal, in the experiment with RXF 393 renal and with SK-OV-3 ovarian was over 100 µM each time.
Consider `CC(=O)CCC[C@H](C)[C@@H](O)[C@@H]1O[C@H]([C@@]2(C)CCC(=O)O2)C[C@H]1C(=O)O`, for which the TGI with OVCAR-8 ovarian, in the experiment with HS 578T breast, in the experiment on SN12C renal, with MOLT-4 leukemia, with HCT-116 colon and in the experiment with SW-620 colon was over 100 µM throughout. The TGI in the experiment on OVCAR-4 ovarian, in the experiment on MCF7 breast, in the experiment on COLO 205 colon, in the experiment with CCRF-CEM leukemia, with TK-10 renal and with SR leukemia was over 100 µM throughout. For the same molecule, the TGI in the experiment on NCI-H460 lung, with UO-31 renal, with RXF 393 renal and with SK-OV-3 ovarian was over 100 µM in each case.
Regarding `O=C1COCCN1C(=O)c1ccccc1Cl`, the TGI in the experiment on OVCAR-8 ovarian, in the experiment on HS 578T breast, in the experiment with SN12C renal, in the experiment with HCT-116 colon, in the experiment with SW-620 colon and in the experiment on OVCAR-4 ovarian was over 100 µM throughout. For the same molecule, the TGI in the experiment on MCF7 breast, in the experiment on MALME-3M melanoma, in the experiment with CCRF-CEM leukemia, in the experiment on TK-10 renal, in the experiment on SR leukemia and in the experiment on NCI-H460 lung was over 100 µM each time. The TGI in the experiment on UO-31 renal and with RXF 393 renal was over 100 µM throughout.
Consider `CCOC(=O)c1cc(C#N)[nH]c1-c1ccsc1`, for which the TGI with OVCAR-8 ovarian was over 100 µM; in the experiment on HS 578T breast, 55.8 µM; with SN12C renal, over 100 µM; in the experiment on MOLT-4 leukemia, 53.1 µM; with HCT-116 colon, over 100 µM; in the experiment with SW-620 colon, over 100 µM. Moreover, the TGI in the experiment with OVCAR-4 ovarian was over 100 µM; with MCF7 breast, over 100 µM; in the experiment with COLO 205 colon it was over 100 µM; in the experiment with MALME-3M melanoma, 77.3 µM; with CCRF-CEM leukemia it was 69.3 µM; in the experiment on TK-10 renal, over 100 µM. In addition, the TGI was 35.5 µM with SR leukemia, over 100 µM in the experiment on NCI-H460 lung, 51.3 µM with RXF 393 renal and over 100 µM in the experiment on SK-OV-3 ovarian.
`COc1ccc(C(SCC(N)C(=O)O)(c2ccc(OC)cc2)c2ccc(OC)cc2)cc1` (stereo not given): the TGI worked out at 18 µM in the experiment on OVCAR-8 ovarian; 19.5 µM in the experiment on HS 578T breast; 17.7 µM in the experiment with SN12C renal; 24 µM with MOLT-4 leukemia; 15.6 µM in the experiment with HCT-116 colon; 27.7 µM in the experiment on OVCAR-4 ovarian. Besides, the TGI with MCF7 breast is 16.5 µM; in the experiment with COLO 205 colon it was 17 µM; in the experiment with MALME-3M melanoma it was 16 µM; in the experiment on CCRF-CEM leukemia it was over 31.6 µM; with TK-10 renal, 25.6 µM; in the experiment with SR leukemia, over 31.6 µM. Further, the TGI came out at 17.3 µM in the experiment on NCI-H460 lung, 20 µM in the experiment with UO-31 renal, 15.6 µM with RXF 393 renal and 72.3 µM with SK-OV-3 ovarian.
